{"source": "ChEMBL document CHEMBL1201862", "about": "“PubChem BioAssay data set” (2004)", "key": {"Vero": {"tested_on": "Vero", "test": "mammalian cell viability reduction – secondary assay, cytotoxicity control for West Nile virus antiviral project, dose response (AID 1650)", "assay_type": "functional", "settings": "Chlorocebus sabaeus"}, "[1]": {"target": "G-protein coupled receptor 55 (Homo sapiens, UniProt Q9Y2T6)", "sequence (Q9Y2T6 whole entry)": "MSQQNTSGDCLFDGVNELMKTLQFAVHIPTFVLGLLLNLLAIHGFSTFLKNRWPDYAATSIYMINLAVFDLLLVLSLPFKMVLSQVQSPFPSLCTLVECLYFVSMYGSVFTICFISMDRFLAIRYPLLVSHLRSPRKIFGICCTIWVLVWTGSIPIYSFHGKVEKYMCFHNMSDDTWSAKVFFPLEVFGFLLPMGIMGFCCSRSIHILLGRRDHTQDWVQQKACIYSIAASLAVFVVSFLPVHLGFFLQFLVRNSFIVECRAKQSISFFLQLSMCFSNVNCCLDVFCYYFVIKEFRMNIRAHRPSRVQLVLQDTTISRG", "test": "blockers of GPR55 signalling, imaged – imaging, image-based, counter-screen for GPR35 antagonist project, SAR follow-up (AID 2397)", "assay_type": "functional"}, "[2]": {"target": "T1, Replicative DNA helicase DnaB (Mycobacterium tuberculosis, UniProt P9WMR3)", "T1 sequence (P9WMR3 whole entry)": "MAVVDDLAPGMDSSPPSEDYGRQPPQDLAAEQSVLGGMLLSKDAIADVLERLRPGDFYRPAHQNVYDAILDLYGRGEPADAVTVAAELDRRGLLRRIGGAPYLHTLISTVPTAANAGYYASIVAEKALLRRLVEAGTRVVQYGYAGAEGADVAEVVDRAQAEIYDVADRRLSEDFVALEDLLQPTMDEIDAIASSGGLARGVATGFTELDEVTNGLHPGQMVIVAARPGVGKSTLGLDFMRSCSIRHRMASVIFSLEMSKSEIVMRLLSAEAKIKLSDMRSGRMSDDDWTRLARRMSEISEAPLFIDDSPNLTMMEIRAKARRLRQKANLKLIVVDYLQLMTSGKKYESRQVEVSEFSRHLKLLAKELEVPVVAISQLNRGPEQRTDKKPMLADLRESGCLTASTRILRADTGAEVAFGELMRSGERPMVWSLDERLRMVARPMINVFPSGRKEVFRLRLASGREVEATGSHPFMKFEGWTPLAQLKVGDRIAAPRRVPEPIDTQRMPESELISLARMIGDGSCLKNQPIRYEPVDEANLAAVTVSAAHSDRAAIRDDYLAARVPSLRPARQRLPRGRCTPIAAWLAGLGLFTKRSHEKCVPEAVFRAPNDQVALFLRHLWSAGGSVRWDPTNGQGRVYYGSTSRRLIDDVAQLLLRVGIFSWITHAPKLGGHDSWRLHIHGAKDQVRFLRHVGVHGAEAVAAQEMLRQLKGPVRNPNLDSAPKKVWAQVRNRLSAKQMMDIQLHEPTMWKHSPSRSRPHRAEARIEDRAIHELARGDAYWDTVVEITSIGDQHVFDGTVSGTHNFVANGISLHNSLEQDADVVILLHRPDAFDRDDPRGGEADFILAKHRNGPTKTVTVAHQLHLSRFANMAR", "test": "DnaB intein splicing inhibitors, dose response, biochemical, cell-free fluorescence (AID 449749)", "assay_type": "functional"}, "Protein RecA": {"target": "T2, Protein RecA (Mycobacterium tuberculosis, UniProt P9WHJ3)", "T2 sequence (P9WHJ3 whole entry)": "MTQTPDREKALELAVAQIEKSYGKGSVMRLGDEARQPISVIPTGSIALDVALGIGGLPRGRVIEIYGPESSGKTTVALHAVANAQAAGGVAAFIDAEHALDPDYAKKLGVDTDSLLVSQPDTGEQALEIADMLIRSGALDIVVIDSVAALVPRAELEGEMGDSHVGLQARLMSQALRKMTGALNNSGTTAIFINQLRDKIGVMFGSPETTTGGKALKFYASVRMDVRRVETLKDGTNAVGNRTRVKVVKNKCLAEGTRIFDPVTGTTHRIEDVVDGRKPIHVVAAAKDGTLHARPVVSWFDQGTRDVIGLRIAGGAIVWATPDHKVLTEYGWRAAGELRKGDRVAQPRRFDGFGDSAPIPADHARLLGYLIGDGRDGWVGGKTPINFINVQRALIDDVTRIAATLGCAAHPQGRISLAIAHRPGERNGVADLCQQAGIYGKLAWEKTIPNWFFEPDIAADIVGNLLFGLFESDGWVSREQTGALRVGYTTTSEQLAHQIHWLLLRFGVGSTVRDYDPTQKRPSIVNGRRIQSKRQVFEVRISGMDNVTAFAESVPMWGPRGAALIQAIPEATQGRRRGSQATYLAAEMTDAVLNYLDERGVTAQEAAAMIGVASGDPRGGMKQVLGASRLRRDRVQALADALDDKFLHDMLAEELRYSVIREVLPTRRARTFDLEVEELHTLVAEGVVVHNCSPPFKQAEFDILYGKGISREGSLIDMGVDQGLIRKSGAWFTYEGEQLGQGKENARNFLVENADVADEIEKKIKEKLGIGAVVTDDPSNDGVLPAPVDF", "test": "Fluorescence Cell-Free Homogeneous Dose Retest to Identify Inhibitors of RecA-Intein Splicing Activity. [Related pubchem assays (depositor defined):AID2097, AID2223, AID489010, AID492950]", "assay_type": "functional"}, "Bcl-2-related protein A1 [3]": {"target": "T3, Bcl-2-related protein A1 (Mus musculus, UniProt Q07440)", "T3 sequence (Q07440 whole entry)": "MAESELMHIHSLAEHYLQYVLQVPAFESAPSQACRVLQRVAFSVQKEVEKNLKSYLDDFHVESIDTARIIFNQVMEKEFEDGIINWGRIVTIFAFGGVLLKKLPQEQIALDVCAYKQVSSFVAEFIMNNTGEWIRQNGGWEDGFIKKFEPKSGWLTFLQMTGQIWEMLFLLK", "test": "Bfl-1 binding inhibitors, SAR follow-up, biochemical, fluorescence polarization (AID 1070)"}, "[4]": {"target": "Nucleotide-binding oligomerization domain-containing protein 1 (Homo sapiens, UniProt Q9Y239)", "test": "SAR analysis of compounds that inhibit NOD1 - Set 3. [Related pubchem assays (depositor defined):AID1566, AID1575, AID1578, AID1849, AID1852, AID2333, AID2335, AID2466]", "assay_type": "functional"}, "Tumor necrosis factor": {"target": "Tumor necrosis factor (Homo sapiens, UniProt P01375)", "sequence (P01375 whole entry)": "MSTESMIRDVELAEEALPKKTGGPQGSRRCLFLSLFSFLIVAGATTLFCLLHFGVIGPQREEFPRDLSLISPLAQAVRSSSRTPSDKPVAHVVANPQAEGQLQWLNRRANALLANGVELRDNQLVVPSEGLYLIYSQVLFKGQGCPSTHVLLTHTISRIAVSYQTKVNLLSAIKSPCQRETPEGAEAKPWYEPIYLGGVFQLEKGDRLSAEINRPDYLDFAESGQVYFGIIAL", "test": "analog potency on TNFa NF-kB signaling – cell-based, set 3, SAR follow-up (AID 2801)", "assay_type": "functional"}, "Bcl-2-related protein A1 [5]": {"target": "T3, Bcl-2-related protein A1", "test": "small-molecule antagonists of Bfl-1/BH3 interaction – biochemical, TR-FRET, mouse Bfl-1, confirmation (AID 621);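 note: TR-FRET binding of GST-Bfl-1 to FITC-labelled Bid peptide via terbium antibody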"}, "[6]": {"target": "Nucleotide-binding oligomerization domain-containing protein 2 (Homo sapiens, UniProt Q9HC29)", "sequence (Q9HC29 whole entry, the tested form may be a part)": "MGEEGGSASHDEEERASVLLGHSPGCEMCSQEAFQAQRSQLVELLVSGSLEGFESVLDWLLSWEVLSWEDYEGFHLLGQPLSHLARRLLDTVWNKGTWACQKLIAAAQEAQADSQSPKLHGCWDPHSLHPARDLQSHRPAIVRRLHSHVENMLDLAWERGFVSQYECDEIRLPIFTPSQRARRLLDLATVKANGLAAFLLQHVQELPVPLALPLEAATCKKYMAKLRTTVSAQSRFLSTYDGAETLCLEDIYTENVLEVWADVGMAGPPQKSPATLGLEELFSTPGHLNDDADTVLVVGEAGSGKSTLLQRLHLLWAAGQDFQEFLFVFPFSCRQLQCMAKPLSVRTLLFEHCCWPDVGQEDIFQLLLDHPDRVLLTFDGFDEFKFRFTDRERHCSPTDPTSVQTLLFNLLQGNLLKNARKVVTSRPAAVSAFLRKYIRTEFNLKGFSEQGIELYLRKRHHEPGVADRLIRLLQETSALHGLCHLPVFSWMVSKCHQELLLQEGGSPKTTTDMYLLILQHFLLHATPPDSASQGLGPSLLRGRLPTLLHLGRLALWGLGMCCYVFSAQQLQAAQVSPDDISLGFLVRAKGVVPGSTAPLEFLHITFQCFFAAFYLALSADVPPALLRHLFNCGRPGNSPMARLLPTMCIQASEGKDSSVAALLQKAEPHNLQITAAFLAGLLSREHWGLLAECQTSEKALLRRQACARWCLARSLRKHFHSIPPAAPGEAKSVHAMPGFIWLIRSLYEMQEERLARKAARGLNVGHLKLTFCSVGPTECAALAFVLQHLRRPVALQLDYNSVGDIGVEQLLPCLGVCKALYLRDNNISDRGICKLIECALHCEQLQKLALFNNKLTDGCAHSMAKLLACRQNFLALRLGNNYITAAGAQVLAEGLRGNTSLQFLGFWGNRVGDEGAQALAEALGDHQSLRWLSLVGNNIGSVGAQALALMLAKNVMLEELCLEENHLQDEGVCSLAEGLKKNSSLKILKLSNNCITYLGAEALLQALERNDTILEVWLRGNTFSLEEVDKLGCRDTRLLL", "test": "inhibition of MDP-driven NOD2 NF-kB reporter – cell-based, set 3, SAR follow-up (AID 2799)", "assay_type": "functional"}, "HEK293": {"tested_on": "HEK293", "test": "SAR analysis of compounds that are cytotoxic to HEK293 - Set 3. [Related pubchem assays (depositor defined):AID1575, AID1578, AID1848, AID1849, AID2001, AID2333, AID2334, AID2335, AID2337, AID2469]", "assay_type": "functional, cell-based", "settings": "Homo sapiens"}, "[7]": {"target": "Glyceraldehyde-3-phosphate dehydrogenase (Homo sapiens, UniProt P04406)", "sequence (P04406 whole entry)": "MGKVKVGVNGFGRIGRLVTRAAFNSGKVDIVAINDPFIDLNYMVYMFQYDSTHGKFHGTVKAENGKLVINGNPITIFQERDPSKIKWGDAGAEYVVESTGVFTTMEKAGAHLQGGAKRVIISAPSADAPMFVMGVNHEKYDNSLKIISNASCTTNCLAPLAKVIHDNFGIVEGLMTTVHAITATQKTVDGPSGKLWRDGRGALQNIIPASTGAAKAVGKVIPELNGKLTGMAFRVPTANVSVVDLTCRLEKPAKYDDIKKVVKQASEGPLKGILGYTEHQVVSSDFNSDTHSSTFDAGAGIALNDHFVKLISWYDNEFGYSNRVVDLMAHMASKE"}, "[8]": {"test": "Luminescence Cell-Based Dose Retest to Confirm Inhibitors of Cancer Stem Cells. [Related pubchem assays (depositor defined):AID2717, AID2721]", "assay_type": "functional", "settings": "Homo sapiens"}, "[9]": {"test": "viability loss in HEK293 cells – cell-based, plate reader, cherry-picked samples, cytotoxicity control, dose response (AID 743446)", "assay_type": "functional"}, "[10]": {"test": "(§1) Late stage assay provider results from the probe development effort to identify inhibitors of Protein Phosphatase Methylesterase 1 (PME-1): luminescence-based […] dose response assay to determine cytotoxicity of inhibitor compounds. [Related pubchem assays (depositor defined):AID2130, AID2143, AID2171, AID2174, AID2177, AID2232, AID2233, AID2291, AID2363, AID2365, AID2366, AID2368, AID2369, AID2371, AID463124, AID463130, AID463131, AID463132, AID463146, AID463149] Panel member name: Serum-free Media", "assay_type": "toxicity"}, "[11]": {"test": "blockers of bursicon-stimulated LGR2 cAMP reporter – cell-based, HEK293, CRE-luciferase reporter, cherry pick, set 2, dose response (AID 743343)", "assay_type": "functional"}, "[12]": {"test": "blockade of melanocortin 4 receptor signaling – cell-based, plate reader, cherry pick, counter-screen for LGR2 antagonist project, dose response (AID 743444)", "assay_type": "functional"}, "[13]": {"test": "A549 cell cytotoxicity, dose response, cytotoxicity control, plate reader, cherry-pick, antagonist series (AID 743412)", "assay_type": "functional, cell-based"}, "[14]": {"test": "as §1, with “Fetal Calf Serum” for “Serum-free Media”", "assay_type": "toxicity"}, "[15]": {"test": "toxicity toward HepG2 liver cells – cell-based, plate reader, cherry-pick, antagonist series, cytotoxicity control, dose response (AID 743416)", "assay_type": "functional"}, "[16]": {"target": "Voltage-dependent T-type calcium channel subunit alpha-1H (Homo sapiens, UniProt O95180)", "sequence (O95180 whole entry)": "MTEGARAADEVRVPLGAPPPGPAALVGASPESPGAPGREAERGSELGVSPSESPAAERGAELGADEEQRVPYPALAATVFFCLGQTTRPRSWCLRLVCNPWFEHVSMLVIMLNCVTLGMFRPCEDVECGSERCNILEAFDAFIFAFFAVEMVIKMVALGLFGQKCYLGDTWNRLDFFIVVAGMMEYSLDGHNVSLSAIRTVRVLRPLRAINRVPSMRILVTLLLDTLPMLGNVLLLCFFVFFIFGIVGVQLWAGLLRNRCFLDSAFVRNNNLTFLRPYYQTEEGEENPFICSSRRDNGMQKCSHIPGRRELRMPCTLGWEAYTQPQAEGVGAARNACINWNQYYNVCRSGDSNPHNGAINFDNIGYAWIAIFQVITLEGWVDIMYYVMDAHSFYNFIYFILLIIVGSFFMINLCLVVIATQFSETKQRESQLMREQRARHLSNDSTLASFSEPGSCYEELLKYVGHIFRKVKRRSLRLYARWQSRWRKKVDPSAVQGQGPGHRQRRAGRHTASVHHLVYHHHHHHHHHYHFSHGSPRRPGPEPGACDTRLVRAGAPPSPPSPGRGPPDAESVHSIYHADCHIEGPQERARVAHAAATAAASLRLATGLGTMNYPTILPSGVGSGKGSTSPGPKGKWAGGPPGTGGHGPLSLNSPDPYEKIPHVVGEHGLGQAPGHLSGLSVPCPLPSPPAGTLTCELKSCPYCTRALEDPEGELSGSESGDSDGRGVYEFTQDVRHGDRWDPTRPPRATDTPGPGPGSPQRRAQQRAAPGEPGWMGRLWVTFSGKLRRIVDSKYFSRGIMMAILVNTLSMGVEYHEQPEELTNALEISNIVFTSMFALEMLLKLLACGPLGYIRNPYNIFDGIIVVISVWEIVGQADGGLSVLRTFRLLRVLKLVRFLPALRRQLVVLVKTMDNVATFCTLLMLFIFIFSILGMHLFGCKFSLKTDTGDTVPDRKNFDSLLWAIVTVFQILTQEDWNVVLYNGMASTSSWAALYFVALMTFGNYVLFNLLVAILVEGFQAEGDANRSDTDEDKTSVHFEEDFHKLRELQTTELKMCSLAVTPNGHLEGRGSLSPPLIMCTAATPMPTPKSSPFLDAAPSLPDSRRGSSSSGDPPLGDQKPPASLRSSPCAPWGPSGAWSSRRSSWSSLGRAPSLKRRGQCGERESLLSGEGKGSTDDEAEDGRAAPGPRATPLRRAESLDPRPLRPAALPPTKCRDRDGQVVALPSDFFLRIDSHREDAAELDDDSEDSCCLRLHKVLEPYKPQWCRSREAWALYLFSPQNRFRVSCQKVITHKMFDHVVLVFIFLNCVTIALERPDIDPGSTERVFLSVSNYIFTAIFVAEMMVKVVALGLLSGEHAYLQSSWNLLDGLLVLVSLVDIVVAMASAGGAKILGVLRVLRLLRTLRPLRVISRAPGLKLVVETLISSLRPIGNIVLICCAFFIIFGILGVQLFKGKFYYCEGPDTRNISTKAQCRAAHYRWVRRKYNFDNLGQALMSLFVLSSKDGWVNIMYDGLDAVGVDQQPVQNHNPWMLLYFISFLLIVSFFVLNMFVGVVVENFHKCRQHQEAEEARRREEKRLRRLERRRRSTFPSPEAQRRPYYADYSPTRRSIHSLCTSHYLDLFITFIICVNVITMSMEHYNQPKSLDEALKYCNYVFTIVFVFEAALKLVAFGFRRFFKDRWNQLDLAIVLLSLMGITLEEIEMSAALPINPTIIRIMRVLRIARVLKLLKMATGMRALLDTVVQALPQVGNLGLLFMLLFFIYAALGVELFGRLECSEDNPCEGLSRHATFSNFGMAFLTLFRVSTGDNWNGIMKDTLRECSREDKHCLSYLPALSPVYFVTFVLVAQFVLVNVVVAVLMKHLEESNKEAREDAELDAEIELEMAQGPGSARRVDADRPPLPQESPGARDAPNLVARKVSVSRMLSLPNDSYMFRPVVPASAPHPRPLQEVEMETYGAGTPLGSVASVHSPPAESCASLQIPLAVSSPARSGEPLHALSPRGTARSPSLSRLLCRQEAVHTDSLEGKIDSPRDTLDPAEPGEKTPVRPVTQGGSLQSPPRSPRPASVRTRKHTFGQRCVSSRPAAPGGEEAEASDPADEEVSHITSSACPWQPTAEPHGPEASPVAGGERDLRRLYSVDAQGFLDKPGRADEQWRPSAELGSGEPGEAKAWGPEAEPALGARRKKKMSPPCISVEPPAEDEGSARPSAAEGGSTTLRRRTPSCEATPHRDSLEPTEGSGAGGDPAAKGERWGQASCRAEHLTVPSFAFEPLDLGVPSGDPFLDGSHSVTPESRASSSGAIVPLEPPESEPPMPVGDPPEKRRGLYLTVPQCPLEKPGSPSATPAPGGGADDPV", "test": "inhibition of CACNA1H calcium flux – cell-based, SynthLib3 library, HEK293 Cav3.2, fluorescence (AID 493041)", "assay_type": "functional"}}, "note": "Active and inactive are the calls of the source."}
{"compound": "O=C(CCCN1C(=O)/C(=C/c2ccccc2)SC1=S)Nc1ccc(O)cc1", "values": [{"measurement": "CC50", "setting": "Vero", "value": "60 µM (active)"}, {"measurement": "IC50", "setting": "[1]", "value": "> 32 µM (inactive)"}, {"measurement": "AC50", "setting": "[2]", "value": "12 µM (active)"}, {"measurement": "EC50", "setting": "Protein RecA", "value": "> 380 µM (inactive)"}]}
{"compound": "COc1ccc(-c2cc(N)n(S(=O)(=O)c3ccc(F)cc3)n2)cc1OC", "values": [{"measurement": "IC50", "setting": "Bcl-2-related protein A1 [3]", "value": "> 100 µM (not active)"}, {"measurement": "IC50", "setting": "[4]", "value": "> 20 µM (inactive)"}, {"measurement": "IC50", "setting": "Tumor necrosis factor", "value": "> 20 µM (inactive)"}, {"measurement": "IC50", "setting": "Bcl-2-related protein A1 [5]", "value": "> 100 µM (not active)"}, {"measurement": "IC50", "setting": "[6]", "value": "> 20 µM (inactive)"}, {"measurement": "IC50", "setting": "HEK293", "value": "> 20 µM (inactive)"}, {"measurement": "IC50", "setting": "[7]", "value": "> 100 µM (not active)"}]}
{"compound": "CCOC(=O)N1C(=O)[C@@](c2ccc(Cl)cc2)(C(C)C)N1C(=O)OCC", "values": [{"measurement": "AC50", "setting": "[2]", "value": "7.28 µM (active)"}, {"measurement": "AC50", "setting": "[8]", "value": "3.99 µM (active)"}, {"measurement": "AC50", "setting": "[9]", "value": "49.1 µM (active)"}, {"measurement": "CC50", "setting": "[10]", "value": "> 10 µM (inactive)"}, {"measurement": "AC50", "setting": "[11]", "value": "17.3 µM (active)"}, {"measurement": "AC50", "setting": "[12]", "value": "26.6 µM (active)"}, {"measurement": "AC50", "setting": "[13]", "value": "22.4 µM (active)"}, {"measurement": "EC50", "setting": "Protein RecA", "value": "16.2 µM (active)"}, {"measurement": "CC50", "setting": "[14]", "value": "> 10 µM (inactive)"}, {"measurement": "AC50", "setting": "[15]", "value": "40.9 µM (active)"}]}
{"compound": "CC(C)CCc1nnc(NC(=O)COc2ccc(F)cc2Cl)o1", "values": [{"measurement": "EC50", "setting": "[16]", "value": "10 µM (active)"}]}
